From patent US11407757B2, “Heterocycle compounds as Tyro3, Axl and MerTK (TAM) family of receptor tyrosine kinase inhibitors” (Development Center for Biotechnology, priority 2017, dated 2022)

Each molecule was assayed against Axl kinase (Homo sapiens (Human), UniProt P30530) (assay: Axl kinase assay (AlphaScreen)). Conditions: activity level class.
Format: biochemical

Sequence of Axl kinase (P30530 26-894): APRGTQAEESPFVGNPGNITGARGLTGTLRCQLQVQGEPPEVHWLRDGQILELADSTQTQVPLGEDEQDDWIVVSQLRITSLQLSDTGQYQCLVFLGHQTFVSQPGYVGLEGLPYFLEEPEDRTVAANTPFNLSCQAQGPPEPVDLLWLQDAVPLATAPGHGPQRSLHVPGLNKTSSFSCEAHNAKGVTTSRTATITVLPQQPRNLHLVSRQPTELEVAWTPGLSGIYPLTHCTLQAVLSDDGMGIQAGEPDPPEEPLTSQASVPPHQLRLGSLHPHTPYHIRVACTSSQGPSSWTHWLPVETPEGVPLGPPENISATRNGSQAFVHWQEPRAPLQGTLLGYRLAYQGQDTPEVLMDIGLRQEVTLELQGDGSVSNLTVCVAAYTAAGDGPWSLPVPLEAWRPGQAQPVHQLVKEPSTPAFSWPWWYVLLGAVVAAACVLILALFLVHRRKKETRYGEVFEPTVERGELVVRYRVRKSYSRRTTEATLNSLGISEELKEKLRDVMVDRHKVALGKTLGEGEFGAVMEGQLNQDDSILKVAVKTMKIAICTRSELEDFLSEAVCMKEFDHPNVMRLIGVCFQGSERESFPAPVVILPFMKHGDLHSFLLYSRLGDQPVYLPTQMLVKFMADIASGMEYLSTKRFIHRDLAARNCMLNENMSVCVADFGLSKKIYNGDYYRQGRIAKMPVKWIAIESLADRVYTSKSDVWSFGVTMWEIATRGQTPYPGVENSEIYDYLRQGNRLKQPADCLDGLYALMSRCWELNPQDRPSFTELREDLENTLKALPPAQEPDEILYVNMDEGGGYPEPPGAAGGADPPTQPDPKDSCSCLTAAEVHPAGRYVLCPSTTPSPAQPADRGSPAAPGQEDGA

Compound | IC50
COCCOc1nc(Nc2ccc(CN3CCN(C)CC3)cc2)nc2[nH]cc(-c3ccc(NS(=O)(=O)c4cc(F)ccc4F)cc3)c12 [Compound 1, 2,5-difluoro-N-(4-(4-(2-methoxyethoxy)-2-((4-((4-methylpiperazin-1-yl)methyl)phenyl)amino)-7H-pyrrolo[2,3-d]pyrimidin-5-yl)phenyl)benzene-sulfonamide] | < 30 nM
COCCOc1nc(Nc2ccc(CN3CCC(C)CC3)cc2)nc2[nH]cc(-c3ccc(NS(=O)(=O)c4cc(F)ccc4F)cc3)c12 [Compound 3, 2,5-difluoro-N-(4-(4-(2-methoxyethoxy)-2-((4-((4-methylpiperidin-1-yl)methyl)phenyl)amino)-7H-pyrrolo[2,3-d]pyrimidin-5-yl)phenyl)benzene-sulfonamide] | < 30 nM
COc1nc(Nc2ccc(CN3CCC(C)CC3)cc2)nc2[nH]cc(-c3ccc(NS(C)(=O)=O)cc3)c12 [Compound 4, N-(4-(4-methoxy-2-((4-((4-methylpiperidin-1-yl)methyl)phenyl)amino)-7H-pyrrolo[2,3-d]pyrimidin-5-yl)phenyl)methane-sulfonamide] | < 30 nM
COc1nc(Nc2ccc(CN3CCC(C)CC3)cc2)nc2[nH]cc(-c3ccc(S(=O)(=O)N(C)C)cc3)c12 [Compound 5, 4-(4-methoxy-2-((4-((4-methylpiperidin-1-yl)methyl)phenyl)amino)-7H-pyrrolo[2,3-d]pyrimidin-5-yl)-N,N-dimethylbenzene-sulfonamide] | < 30 nM
COCCOc1nc(Nc2ccc(CN3CCN(C)CC3)cc2)nc2[nH]cc(-c3ccc(OCc4cc(C)ccn4)cc3F)c12 [Compound 9, 5-(2-fluoro-4-((4-methylpyridin-2-yl)methoxy)phenyl)-4-(2-methoxyethoxy)-N-(4-((4-methylpiperazin-1-yl)methyl)phenyl)-7H-pyrrolo[2,3-d]pyrimidin-2-amine] | < 30 nM
COCCOc1nc(Nc2ccc(CN3CCN(C)CC3)cc2)nc2[nH]cc(-c3ccc(OCc4ncccc4C)cc3F)c12 [Compound 11, 5-(2-fluoro-4-((3-methylpyridin-2-yl)methoxy)phenyl)-4-(2-methoxyethoxy)-N-(4-((4-methylpiperazin-1-yl)methyl)phenyl)-7H-pyrrolo[2,3-d]pyrimidin-2-amine] | < 30 nM
COc1nc(Nc2ccc(CN3CCN(C)CC3)cc2)nc2[nH]cc(-c3ccc(O)cc3)c12 [Compound 17, 4-(4-methoxy-2-((4-((4-methylpiperazin-1-yl)methyl)phenyl)amino)-7H-pyrrolo [2,3-d]pyrimidin-5-yl)phenol] | < 30 nM
CCN1CCN(Cc2ccc(Nc3nc(OCCOC)c4c(-c5ccc(OCc6ccccn6)cc5F)c[nH]c4n3)cc2)CC1 [Compound 19, N-(4-((4-ethylpiperazin-1-yl)methyl)phenyl)-5-(2-fluoro-4-(pyridin-2-ylmethoxy)phenyl)-4-(2-methoxyethoxy)-7H-pyrrolo[2,3-d]pyrimidin-2-amine] | < 30 nM
COc1nc(Nc2ccc(CN3CCC(C)CC3)cc2)nc2[nH]cc(-c3ccc(O)cc3)c12 [Compound 28, 4-(4-methoxy-2-((4-((4-methylpiperidin-1-yl)methyl)phenyl)amino)-7H-pyrrolo[2,3-d]pyrimidin-5-yl)phenol] | < 30 nM
COCCOc1nc(Nc2ccc(CN3CCC(C)CC3)cc2)nc2[nH]cc(-c3ccc(OCc4ncccn4)cc3F)c12 [Compound 34, 5-(2-fluoro-4-(pyrimidin-2-ylmethoxy)phenyl)-4-(2-methoxyethoxy)-N-(4-((4-methylpiperidin-1-yl)methyl)phenyl)-7H-pyrrolo[2,3-d]pyrimidin-2-amine] | < 30 nM
COc1nc(Nc2ccc(CN3CCN(C)CC3)cc2)nc2[nH]cc(-c3ccc(F)cc3)c12 [Compound 38, 5-(4-fluorophenyl)-4-methoxy-N-(4-((4-methylpiperazin-1-yl)methyl)phenyl)-7H-pyrrolo[2,3-d]pyrimidin-2-amine] | < 30 nM
CCN1CCN(Cc2ccc(Nc3nc(OCCOC)c4c(-c5ccc(OCc6ncccn6)cc5F)c[nH]c4n3)cc2)CC1 [Compound 39, N-(4-((4-ethylpiperazin-1-yl)methyl)phenyl)-5-(2-fluoro-4-(pyrimidin-2-ylmethoxy)phenyl)-4-(2-methoxyethoxy)-7H-pyrrolo[2,3-d]pyrimidin-2-amine] | < 30 nM

Further lines, results first:

IC50 | Compound
< 30 nM | CCN1CCN(Cc2ccc(Nc3nc(OC)c4c(-c5ccc(F)cc5F)c[nH]c4n3)cc2)CC1 [Compound 45, 5-(2,4-difluorophenyl)-N-(4-((4-ethylpiperazin-1-yl)methyl)phenyl)-4-methoxy-7H-pyrrolo [2,3-d]pyrimidin-2-amine]
< 30 nM | CCN1CCN(Cc2ccc(Nc3nc(OC)c4c(-c5ccc(O)cc5)c[nH]c4n3)cc2)CC1 [Compound 48, 4-(2-((4-((4-ethylpiperazin-1-yl)methyl)phenyl)amino)-4-methoxy-7H-pyrrolo[2,3-d]pyrimidin-5-yl)phenol]
< 30 nM | COCCOc1nc(Nc2ccc(CN3CCN(C)CC3)cc2)nc2[nH]cc(-c3ccc(F)c(Cl)c3)c12 [Compound 50, 5-(3-chloro-4-fluorophenyl)-4-(2-methoxyethoxy)-N-(4-((4-methylpiperazin-1-yl)methyl)phenyl)-7H-pyrrolo[2,3-d]pyrimidin-2-amine]
< 30 nM | CN1CCN(Cc2ccc(Nc3nc(OCC4CCCO4)c4c(-c5ccc(F)cc5F)c[nH]c4n3)cc2)CC1 (stereo not drawn) [Compound 52, 5-(2,4-difluorophenyl)-N-(4-((4-methylpiperazin-1-yl)methyl)phenyl)-4-((tetrahydrofuran-2-yl)methoxy)-7H-pyrrolo[2,3-d] pyrimidin-2-amine]
< 30 nM | COCCOc1nc(Nc2ccc(CN3CCN(C)CC3)cc2)nc2[nH]cc(-c3ccc(F)cc3F)c12 [Compound 53, 5-(2,4-difluorophenyl)-4-(2-methoxyethoxy)-N-(4-((4-methylpiperazin-1-yl)methyl)phenyl)-7H-pyrrolo[2,3-d] pyrimidin-2-amine]
< 30 nM | CCNc1nc(Nc2ccc(CN3CCN(C)CC3)cc2)nc2[nH]cc(-c3ccc(F)cc3F)c12 [Compound 54, 5-(2,4-difluorophenyl)-N4-ethyl-N2-(4-((4-methylpiperazin-1-yl)methyl)phenyl)-7H-pyrrolo[2,3-d] pyrimidine-2,4-diamine]
< 30 nM | CN1CCN(Cc2ccc(Nc3nc(OC4CCCC4)c4c(-c5ccc(F)cc5F)c[nH]c4n3)cc2)CC1 [Compound 55, 4-(cyclopentyloxy)-5-(2,4-difluorophenyl)-N-(4-((4-methylpiperazin-1-yl)methyl)phenyl)-7H-pyrrolo[2,3-d]pyrimidin-2-amine]
< 30 nM | CCOc1nc(Nc2ccc(CN3CCN(C)CC3)cc2)nc2[nH]cc(-c3ccc(F)cc3F)c12 [Compound 59, 5-(2,4-difluorophenyl)-4-ethoxy-N-(4-((4-methylpiperazin-1-yl)methyl)phenyl)-7H-pyrrolo[2,3-d] pyrimidin-2-amine]
< 30 nM | COCC(C)Oc1nc(Nc2ccc(CN3CCN(C)CC3)cc2)nc2[nH]cc(-c3ccc(F)cc3F)c12 (stereo not drawn) [Compound 63, 5-(2,4-difluorophenyl)-4-((1-methoxypropan-2-yl)oxy)-N-(4-((4-methylpiperazin-1-yl)methyl)phenyl)-7H-pyrrolo[2,3-d]pyrimidin-2-amine]
